Reference: patent US8933111B2, “Crystalline form of (2S,4R)-5-biphenyl-4-yl-2-hydroxymethyl-2-methyl-4-[(1H-[1,2,3]triazole-4-carbonyl)-amino]-pentanoic acid 5-methyl-2-oxo-[1,3]dioxol-4-ylmethyl ester” (Theravance Biopharma R&D IP, LLC, priority 2012, dated 2015)

Key:
[1] = Thermogravimetric analysis (TGA); type: physicochemical; conditions: heating rate of 10° C. from ambient to 220° C., nitrogen purge
Method: Thermogravimetric analysis (TGA) measurements were performed using a TA Instruments Model Q-50 module equipped with high resolution capability. Data were collected using TA Instruments Thermal Analyst controller and analyzed using TA Instruments Universal Analysis software. A weighed sample was placed onto a platinum pan and scanned with a heating rate of 10° C. from ambient temperature to 220° C. The balance and furnace chambers were purged with nitrogen flow during use.

[2] = Dynamic moisture sorption (DMS) assessment; type: physicochemical
Method: Dynamic moisture sorption (DMS) measurements were performed using a VTI atmospheric microbalance, SGA-100 system (VTI Corp., Hialeah, Fla. 33016). A weighed sample was used and the relative humidity (RH) was set at the ambient value at the start of the analysis. The sample was subjected to an initial drying step (from 45% RH to 5% RH) followed by two cycles of adsorption (5% RH to 90% RH) and desorption (90% RH to 5% RH) experiments. The DMS analysis used a scan rate of 5% RH/step over the full humidity range of 5% (RH) to 90% RH. The DMS run was performed isothermally at 25° C.

Cc1oc(=O)oc1COC(=O)[C@](C)(CO)C[C@@H](Cc1ccc(-c2ccccc2)cc1)NC(=O)c1c[nH]nn1 [crystalline compound, (2S,4R)-5-biphenyl-4-yl-2-hydroxymethyl-2-methyl-4-[(1H-[1,2,3]triazole-4-carbonyl)-amino]-pentanoic acid 5-methyl-2-oxo-[1,3]dioxol-4-ylmethyl ester]
temperature until which the TGA trace shows no weight loss [1]: about 200 °C
hygroscopicity (DMS profile) ([2]; 5% RH to 90% RH, two adsorption/desorption cycles, 25° C.): non-hygroscopic
moisture picked up during the adsorption segment ([2]; adsorption from 5% RH to 90% RH, isothermal at 25° C.): less than 0.1 % by weight
solid form after the DMS experiment (PXRD of post-DMS sample) ([2]; after two moisture sorption-desorption cycles): no change in the form
